From US12005127B2, “DNA-PK inhibitors” (VERTEX PHARMACEUTICALS INCORPORATED, priority 2018, dated 2024)

What was measured:
DNA-PK [1] = molecular target: T1, DNA-PK (Homo sapiens, UniProt P78527); assay: DNA-PK inhibition assay (radiometric 33P-ATP kinase assay); assay type: biochemical; settings: competitive tight-binding fit
Protocol: Compounds were screened for their ability to inhibit DNA-PK kinase using a standard radiometric assay. Briefly, in this kinase assay the transfer of the terminal ^33P-phosphate in ^33P-ATP to a peptide substrate is interrogated. The assay was carried out in 384-well plates to a final volume of 50 μL per well containing approximately 6 nM DNA-PK, 50 mM HEPES (pH 7.5), 10 mM MgCl2, 25 mM NaCl, 0.01% BSA, 1 mM DTT, 10 μg/mL sheared double-stranded DNA (obtained from Sigma), 0.8 mg/mL DNA-PK peptide (Glu-Pro-Pro-Leu-Ser-Gln-Glu-Ala-Phe-Ala-Asp-Leu-Trp-Lys-Lys-Lys, obtained from American Peptide), and 100 μM ATP. Accordingly, compounds of the invention were dissolved in DMSO to make 10 mM initial stock solutions. Serial dilutions in DMSO were then made to obtain the final solutions for the assay. A 0.75 μL aliquot of DMSO or inhibitor in DMSO was added to each well, followed by the addition of ATP substrate solution containing ^33P-ATP (obtained from Perkin Elmer). The reaction was started by the addition of DNA-PK, peptide and ds-DNA. After 45 min, the reaction was quenched with 25 μL of 5% phosphoric acid. The reaction mixture was transferred to MultiScreen HTS 384-well PH plates (obtained from Millipore), allowed to bind for one hour, and washed three times with 1% phosphoric acid. Following the addition of 50 μL of Ultima Gold™ high efficiency scintillant (obtained from Perkin Elmer), the samples were counted in a Packard TopCount NXT Microplate Scintillation and Luminescence Counter (Packard BioScience). The Ki values were calculated using Microsoft Excel Solver macros to fit the data to the kinetic model for competitive tight-binding inhibition. In Tables 1 and 2 below, Ki of less than 0.001 micromolar for the inhibition of DNA-PK is indicated as “A”; Ki of equal to or greater than 0.001 micromolar and less than 0.01 micromolar for the inhibition of DNA-PK as “B”; Ki of equal to or greater than 0.01 micromolar and less than 0.1 micromolar for the inhibition of DNA-PK as “C”; Ki of equal to or greater than 0.1 micromolar and less than 1 micromolar for the inhibition of DNA-PK for “D”; and Ki of equal to or greater than 1 micromolar as “E.”

DNA-PK [2] = molecular target: T1, DNA-PK; assay: DNA-PK cellular assay (pDNA-PK Ser2056 sandwich ELISA, NCS-induced DSBs); assay type: cell-based; design: endogenous in cells; host or cells: A549 (human NSCLC); settings: pDNA-PK (Ser2056) in A549 cells, NCS 50 ng/ml, 15 minutes
Text: DNA-PK is recruited to and activated by double-strand breaks (DSB) in DNA and plays a critical role in the non-homologous end-joining (NHEJ) repair mechanism. Upon activation, DNA-PK undergoes rapid autophosphorylation at Ser2056. The measure of pDNA-PK (Ser2056) in response to DNA DSBs provides a cellular signaling assay to evaluate potential DNA-PK kinase inhibitors.
Neocarzinostatin (NCS) was used as a radiomimetic to induce DNA DSBs. The sandwich ELISA used the Meso Scale Discovery electrochemiluminescence technology platform which typically provides greater sensitivity than traditional ELISA formats.
A549 (human NSCLC) cells are plated at 25,000 cells/well in 100 uL of DMEM (Invitrogen cat #11995-040) supplemented with 1% Pen/Strep (Invitrogen cat #15070-063) and 10% FBS (Hyclone cat #SH30071.03HI) on black clear bottom 96 well plates (Costar #3904) and allowed to adhere overnight at 37° C. in 5% CO2. The following day, the compounds and NCS solutions are prepared by adding 100 ul of DMEM growth media per well in a Corning polypropylene V-bottom deep well plate (cat #3357). The HP Compound Dilution D300 instrument was used to add compounds to the appropriate wells using the setting logarithmic and 16-point titration singlet.
The DMEM NCS solution was prepared by adding NCS to DMEM media at 200 ng/ml (final assay concentration, 50 ng/ml). 100 ul of the DMEM/NCS solution is added to the wells with the compounds. 100 ul of this solution is then immediately added to the A549 cells. The cells are then incubated for 15 minutes at 37° C.
The complete lysis buffer is prepared by adding 1% Phosphatase inhibitor (Sigma cat #P2850) and 1% Protease Inhibitor (Sigma cat #P8340) to the Lanthascreen cellular assay lysis buffer (Invitrogen cat #PV5598). The media from the plate was removed by flicking and patting dry. 60 uL/well of the complete lysis buffer is added to each well. These plates are then incubated for at least 5 minutes in the lysis buffer at room temperature to ensure complete lysis. At this point the lysates can be transferred to prepared ELISA plates.
The prepared ELISA plates were prepared blocking the Mesoscale Goat-Anti-Mouse (GAM) plates with 150 uL/well of 3% Blocker A (Mesoscale cat #R93-BA) for one hour at room temperature with shaking. The capture antibody is prepared by diluting the mouse monoclonal anti-total DNA-PK (AbCAM cat #ab1832) to 3 ug/mL in 1% Blocker A. The blocked plates rinsed once with 200 uL D-PBS. The capture antibody (25 ul/well) was added to each well and allowed to incubate for an hour at room temperature while shaking. This was rinsed once with 200 ul D-PBS before adding 25 uL of the prepared cell lysate from the cell plates to the Mesoscale GAM ELISA plate. The lysate is then incubated on the plates for one hour at room temperature with shaking. The detection antibody (Epitomics rabbit anti-pS2056-DNA-PK) is prepared at a 1/1000 dilution (to a final concentration of 450 ng/mL) in 1% Blocker A. The GAM plates are washed once with 200 uL of D-PBS and then 25 uL/well of the detection antibody is added to the plate. This incubates for one hour at room temperature with shaking. The Sulfotag is prepared by adding Sulfo-Tag Goat-Anti-Rabbit antibody (Mesoscale cat #R32AB-1) at a 1/500 dilution (1 ug/mL) to 1% Blocker A. The GAM plates are washed with 200 uL of D-PBS and then 25 uL of the Sulfotag preparation is added to each well. Once the plates have been incubated with the final solution, the Sulfotag, for 1 hour, they are washed once with 200 uL of D-PBS. The 1× Read Buffer (Mesoscale cat #R32-TC) is made by diluting the 4× buffer in ddH20. 150 uL of 1× buffer is added to each well of the GAM plate and then the plate is read on the Sector Imager 2400. The readout (electrochemiluminescence) was plotted against the concentration of each compound and the IC50s were generated using Prism software (GraphPad Prism version 6.0e for Macintosh). […]

Structure (SMILES)	Ki (DNA-PK [1]; Table 1, 100 μM ATP) [µM]	IC50 (DNA-PK [2]; Table 1) [nM]	Ki (DNA-PK [1]; Table 2, 100 μM ATP) [µM]	IC50 (DNA-PK [2]; Table 2) [nM]
CNC(=O)c1ccnc(N[C@H]2CC[C@@H](Oc3cc(N4CCOCC4)cc4ncnc(C)c34)CC2)n1 [Compound 13, N-methyl-2-[[4-(4-methyl-7-morpholino-quinazolin-5-yl)oxycyclohexyl]amino]pyrimidine-4-carboxamide]	< 0.001	< 100		
CN1CCN(c2cc(N[C@H]3CC[C@@H](Oc4cc(N5CCOCC5)cc5ncncc45)CC3)ncn2)CC1 [Compound 14, 6-(4-methylpiperazin-1-yl)-N-[4-(7-morpholinoquinazolin-5-yl)oxycyclohexyl]pyrimidin-4-amine]	< 0.001	< 100		
O=C(N[C@H]1CC[C@@H](Oc2cc(N3CCOCC3)cc3ncncc23)CC1)c1ccncn1 [Compound 15, N-[4-(7-morpholinoquinazolin-5-yl)oxycyclohexyl]pyrimidine-4-carboxamide]	< 0.001	< 100		
O=C(N[C@H]1CC[C@@H](Oc2cc(N3CCOCC3)cc3ncncc23)CC1)C1CC1 [Compound 16, N-[4-(7-morpholinoquinazolin-5-yl)oxycyclohexyl]cyclopropanecarboxamide]	< 0.001	< 100		
c1ncc2c(O[C@H]3CC[C@@H](Nc4ncnc5ccoc45)CC3)cc(N3CCOCC3)cc2n1 [Compound 17, N-[4-(7-morpholinoquinazolin-5-yl)oxycyclohexyl]furo[3,2-d]pyrimidin-4-amine]	< 0.001	< 100		
CN1CCN(c2nccc(N[C@H]3CC[C@@H](Oc4cc(N5CCOCC5)cc5ncncc45)CC3)n2)CC1 [Compound 18, 2-(4-methylpiperazin-1-yl)-N-[4-(7-morpholinoquinazolin-5-yl)oxycyclohexyl]pyrimidin-4-amine]	< 0.001	< 100		
CNC(=O)c1ccnc(N[C@H]2CC[C@@H](Oc3cc(N4CCOCC4)cc4nc(C)ncc34)CC2)n1 [Compound 19]	0.001 to 0.01	< 100		
COCC(=O)N[C@H]1CC[C@@H](Oc2cc(N3CCOCC3)cc3ncncc23)CC1 [Compound 20, 2-methoxy-N-((1s,4s)-4-((7-morpholinoquinazolin-5-yl)oxy)cyclohexyl)acetamide]	0.001 to 0.01	≥ 1000		
CCOC(=O)N[C@H]1CC[C@@H](Oc2cc(N3CCOCC3)cc3ncncc23)CC1 [Compound 22, ethyl ((1s,4s)-4-((7-morpholinoquinazolin-5-yl)oxy)cyclohexyl)carbamate]	< 0.001	< 100		
CC1(C(=O)N[C@H]2CC[C@@H](Oc3cc(N4CCOCC4)cc4ncncc34)CC2)CC1 [Compound 23, 1-methyl-N-((1s,4s)-4-((7-morpholinoquinazolin-5-yl)oxy)cyclohexyl)cyclopropane-1-carboxamide]	< 0.001	< 100		
Cn1ccc(N[C@H]2CC[C@@H](Oc3cc(N4CCOCC4)cc4ncncc34)CC2)n1 [Compound 24, 1-methyl-N-((1s,4s)-4-((7-morpholinoquinazolin-5-yl)oxy)cyclohexyl)-1H-pyrazol-3-amine]	< 0.001	< 100		
COc1ccc(COc2cc(N3CCOCC3)cc3nc[nH]c(=O)c23)cc1 [Compound 51, 5-[(4-methoxyphenyl)methoxy]-7-morpholino-3H-quinazolin-4-one]			0.1 to 1	≥ 1000
COc1ccc(COc2cc(N3CCOCC3)cc3ncncc23)cc1 [Compound 52, 4-[5-[(4-methoxyphenyl)methoxy]quinazolin-7-yl]morpholine]			0.001 to 0.01	≥ 1000
COc1ccc(COc2cc(N3CCOCC3)cc3ncnc(OC)c23)cc1 [Compound 53, 4-[4-methoxy-5-[(4-methoxyphenyl)methoxy]quinazolin-7-yl]morpholine]			0.01 to 0.1	≥ 1000
COc1ccc(COc2cc(N3CCOCC3)cc3ncnc(C#N)c23)cc1 [Compound 55, 5-[(4-methoxyphenyl)methoxy]-7-morpholino-quinazoline-4-carbonitrile]			0.001 to 0.01	≥ 1000
